Experimental data: PubChem BioAssay (NCI)
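Each compound was tested at five concentrations against cells in 96-well plates for 48 hours. TGI: total growth inhibition.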

Columns and labels:
Assay in all cases: NCI-60 cell line screen, 48 h
786-0 renal = tested on: 786-0 renal
SN12C renal = tested on: SN12C renal
UACC-62 melanoma = tested on: UACC-62 melanoma
CCRF-CEM leukemia = tested on: CCRF-CEM leukemia
ACHN renal = tested on: ACHN renal
PC-3 prostate = tested on: PC-3 prostate
MALME-3M melanoma = tested on: MALME-3M melanoma
KM12 colon = tested on: KM12 colon
SK-MEL-2 melanoma = tested on: SK-MEL-2 melanoma
SF-539 CNS = tested on: SF-539 CNS
UACC-257 melanoma = tested on: UACC-257 melanoma
LOX IMVI melanoma = tested on: LOX IMVI melanoma
RXF 393 renal = tested on: RXF 393 renal
HCT-15 colon = tested on: HCT-15 colon
OVCAR-5 ovarian = tested on: OVCAR-5 ovarian
BT-549 breast = tested on: BT-549 breast
OVCAR-8 ovarian = tested on: OVCAR-8 ovarian
T-47D breast = tested on: T-47D breast
OVCAR-4 ovarian = tested on: OVCAR-4 ovarian
OVCAR-3 ovarian = tested on: OVCAR-3 ovarian
CAKI-1 renal = tested on: CAKI-1 renal
HOP-62 NSCLC = tested on: HOP-62 NSCLC
HL-60(TB) leukemia = tested on: HL-60(TB) leukemia
SK-MEL-5 melanoma = tested on: SK-MEL-5 melanoma
MCF7 breast = tested on: MCF7 breast
HOP-92 NSCLC = tested on: HOP-92 NSCLC
NCI/ADR-RES ovarian = tested on: NCI/ADR-RES ovarian
MDA-N = tested on: MDA-N
UO-31 renal = tested on: UO-31 renal
M14 melanoma = tested on: M14 melanoma
A498 renal = tested on: A498 renal
HT29 colon = tested on: HT29 colon
SF-268 CNS = tested on: SF-268 CNS
RPMI-8226 leukemia = tested on: RPMI-8226 leukemia
HS 578T breast = tested on: HS 578T breast
SNB-75 CNS = tested on: SNB-75 CNS
TK-10 renal = tested on: TK-10 renal
MDA-MB-435 = tested on: MDA-MB-435
SK-OV-3 ovarian = tested on: SK-OV-3 ovarian
DU-145 prostate = tested on: DU-145 prostate
NCI-H226 lung = tested on: NCI-H226 lung
SW-620 colon = tested on: SW-620 colon
NCI-H23 lung = tested on: NCI-H23 lung
SR leukemia = tested on: SR leukemia
MDA-MB-231 breast = tested on: MDA-MB-231 breast
EKVX NSCLC = tested on: EKVX NSCLC
COLO 205 colon = tested on: COLO 205 colon
A549 NSCLC = tested on: A549 NSCLC
NCI-H460 lung = tested on: NCI-H460 lung
HCT-116 colon = tested on: HCT-116 colon
K-562 leukemia = tested on: K-562 leukemia
SF-295 CNS = tested on: SF-295 CNS
NCI-H522 lung = tested on: NCI-H522 lung
MOLT-4 leukemia = tested on: MOLT-4 leukemia
SNB-19 CNS = tested on: SNB-19 CNS
U251 CNS = tested on: U251 CNS
IGROV1 ovarian = tested on: IGROV1 ovarian
SK-MEL-28 melanoma = tested on: SK-MEL-28 melanoma
HCC-2998 colon = tested on: HCC-2998 colon

Q: What does the source list for `O=C(O)C(Sc1ccc(Cl)cc1)Sc1ccc(Cl)cc1`?
A: TGI (786-0 renal): > 100 µM; TGI (SN12C renal): > 100 µM; TGI (UACC-62 melanoma): 72.1 µM; TGI (CCRF-CEM leukemia): > 100 µM; TGI (ACHN renal): > 100 µM; TGI (PC-3 prostate): > 100 µM; TGI (MALME-3M melanoma): > 100 µM; TGI (KM12 colon): > 100 µM; TGI (SK-MEL-2 melanoma): 69.1 µM; TGI (SF-539 CNS): > 100 µM; TGI (UACC-257 melanoma): > 100 µM; TGI (LOX IMVI melanoma): > 100 µM; TGI (RXF 393 renal): > 100 µM; TGI (HCT-15 colon): > 100 µM; TGI (OVCAR-5 ovarian): > 100 µM; TGI (BT-549 breast): > 100 µM; TGI (OVCAR-8 ovarian): > 100 µM; TGI (T-47D breast): > 100 µM; TGI (OVCAR-4 ovarian): > 100 µM; TGI (OVCAR-3 ovarian): 82.6 µM; TGI (CAKI-1 renal): > 100 µM; TGI (HOP-62 NSCLC): > 100 µM; TGI (HL-60(TB) leukemia): > 100 µM; TGI (SK-MEL-5 melanoma): > 100 µM; TGI (MCF7 breast): > 100 µM; TGI (HOP-92 NSCLC): 68.2 µM; TGI (NCI/ADR-RES ovarian): > 100 µM; TGI (MDA-N): > 100 µM; TGI (UO-31 renal): > 100 µM; TGI (M14 melanoma): > 100 µM; TGI (A498 renal): 95.5 µM; TGI (HT29 colon): > 100 µM; TGI (SF-268 CNS): > 100 µM; TGI (RPMI-8226 leukemia): > 100 µM; TGI (HS 578T breast): > 100 µM; TGI (SNB-75 CNS): > 100 µM; TGI (TK-10 renal): > 100 µM; TGI (MDA-MB-435): > 100 µM; TGI (SK-OV-3 ovarian): > 100 µM; TGI (DU-145 prostate): > 100 µM; TGI (NCI-H226 lung): > 100 µM; TGI (SW-620 colon): > 100 µM; TGI (NCI-H23 lung): > 100 µM; TGI (SR leukemia): > 100 µM; TGI (MDA-MB-231 breast): > 100 µM; TGI (EKVX NSCLC): > 100 µM; TGI (COLO 205 colon): 59 µM; TGI (A549 NSCLC): > 100 µM; TGI (NCI-H460 lung): > 100 µM; TGI (HCT-116 colon): > 100 µM; TGI (K-562 leukemia): > 100 µM; TGI (SF-295 CNS): > 100 µM; TGI (NCI-H522 lung): > 100 µM; TGI (MOLT-4 leukemia): > 100 µM; TGI (SNB-19 CNS): > 100 µM; TGI (U251 CNS): > 100 µM; TGI (IGROV1 ovarian): > 100 µM; TGI (SK-MEL-28 melanoma): > 100 µM; TGI (HCC-2998 colon): 69.1 µM

Q: Which TGI (786-0 renal) does the source give for `CNC1C(=O)C(C)C(O)(C(CC(C)C(O)/C=C/C=C/CNC(=O)C(C)(C)C(O)\C(C)=C/C=C\C=C\Cc2cnc(C)o2)OC)C12C(=O)OC2COC` (stereo not drawn) (tested in a mixture with another compound) here?
A: 73.7 µM

Q: And the TGI (SN12C renal)?
A: > 82.7 µM

Q: What about the TGI (UACC-62 melanoma) of the same compound?
A: 49.9 µM

Q: And the TGI (CCRF-CEM leukemia)?
A: 38.5 µM

Q: What about the TGI (ACHN renal) of the same compound?
A: > 43.2 µM

Q: What about the TGI (PC-3 prostate) of the same compound?
A: 63.5 µM

Q: What about the TGI (MALME-3M melanoma) of the same compound?
A: > 87.9 µM

Q: And the TGI (KM12 colon)?
A: 26.1 µM

Q: What about the TGI (SK-MEL-2 melanoma) of the same compound?
A: > 71.7 µM

Q: And the TGI (SF-539 CNS)?
A: 67 µM

Q: And the TGI (UACC-257 melanoma)?
A: > 100 µM

Q: What about the TGI (LOX IMVI melanoma) of the same compound?
A: 31.5 µM

Q: What about the TGI (RXF 393 renal) of the same compound?
A: 92.3 µM

Q: And the TGI (HCT-15 colon)?
A: > 63.1 µM

Q: What about the TGI (OVCAR-5 ovarian) of the same compound?
A: > 70.2 µM

Q: And the TGI (BT-549 breast)?
A: > 100 µM

Q: And the TGI (OVCAR-8 ovarian)?
A: > 100 µM

Q: What about the TGI (T-47D breast) of the same compound?
A: > 93.3 µM

Q: What about the TGI (OVCAR-4 ovarian) of the same compound?
A: > 100 µM

Q: And the TGI (OVCAR-3 ovarian)?
A: 34.6 µM

Q: What about the TGI (CAKI-1 renal) of the same compound?
A: > 100 µM

Q: What about the TGI (HOP-62 NSCLC) of the same compound?
A: 24.1 µM

Q: What about the TGI (HL-60(TB) leukemia) of the same compound?
A: 3.48 µM

Q: And the TGI (SK-MEL-5 melanoma)?
A: 18.4 µM

Q: And the TGI (MCF7 breast)?
A: > 84.9 µM

Q: And the TGI (HOP-92 NSCLC)?
A: > 51.3 µM

Q: What about the TGI (NCI/ADR-RES ovarian) of the same compound?
A: > 100 µM

Q: What about the TGI (MDA-N) of the same compound?
A: 71.4 µM

Q: And the TGI (UO-31 renal)?
A: 67.3 µM

Q: What about the TGI (M14 melanoma) of the same compound?
A: 27 µM

Q: What about the TGI (A498 renal) of the same compound?
A: > 79.3 µM

Q: What about the TGI (HT29 colon) of the same compound?
A: 20.7 µM

Q: What about the TGI (SF-268 CNS) of the same compound?
A: 42.9 µM

Q: What about the TGI (RPMI-8226 leukemia) of the same compound?
A: 42.4 µM

Q: What about the TGI (HS 578T breast) of the same compound?
A: > 100 µM

Q: And the TGI (SNB-75 CNS)?
A: 30.6 µM

Q: And the TGI (TK-10 renal)?
A: > 100 µM

Q: What about the TGI (MDA-MB-435) of the same compound?
A: > 100 µM

Q: What about the TGI (SK-OV-3 ovarian) of the same compound?
A: > 100 µM

Q: And the TGI (DU-145 prostate)?
A: > 100 µM

Q: What about the TGI (NCI-H226 lung) of the same compound?
A: 4.92 µM

Q: What about the TGI (SW-620 colon) of the same compound?
A: > 46.9 µM

Q: What about the TGI (NCI-H23 lung) of the same compound?
A: > 60.7 µM

Q: What about the TGI (SR leukemia) of the same compound?
A: 48.1 µM

Q: And the TGI (MDA-MB-231 breast)?
A: > 63.3 µM

Q: And the TGI (EKVX NSCLC)?
A: > 64.4 µM

Q: What about the TGI (COLO 205 colon) of the same compound?
A: 20.2 µM

Q: And the TGI (A549 NSCLC)?
A: > 100 µM

Q: And the TGI (NCI-H460 lung)?
A: > 100 µM

Q: What about the TGI (HCT-116 colon) of the same compound?
A: > 49.9 µM

Q: And the TGI (K-562 leukemia)?
A: 5.42 µM

Q: And the TGI (SF-295 CNS)?
A: > 53.3 µM

Q: What about the TGI (NCI-H522 lung) of the same compound?
A: 21.2 µM

Q: What about the TGI (MOLT-4 leukemia) of the same compound?
A: 35.8 µM

Q: What about the TGI (SNB-19 CNS) of the same compound?
A: > 85.9 µM

Q: And the TGI (U251 CNS)?
A: > 52.2 µM

Q: And the TGI (IGROV1 ovarian)?
A: > 26.2 µM

Q: And the TGI (SK-MEL-28 melanoma)?
A: > 100 µM

Q: What about the TGI (HCC-2998 colon) of the same compound?
A: 41.7 µM
